Results on eleven compounds are retold here after patent US20230201550A1, “SYSTEMS AND METHODS FOR TREATING PERSISTENT PAIN OF NEUROGENIC ORIGIN AND COMPLEX INJURY” (Nova Neura, LLC, priority 2020, published 2023).

Tested on in one data set: not listed separately
Kind of data set: Stability and crystallization of the topical composition.
Settings: not given
The class given is physicochemical. The source says:
Through experimentation it was discovered that a combination of sugars (e.g. mannitol with dextrose) with or without the addition of corn syrup (also known as glucose-fructose) would impede or completely eliminate the crystallization process, allowing for a higher concentration of these ingredients in solution.
For the compound `OCC(O)CO` [Glycerin], the “stability in solution / of the formula, shelf-life” value is on record as “highly effective stabilizing measure”.

The data set is the same for the next values; noted with them: winter temperatures or refrigerator; combination of sugars.
Take `OC[C@@H](O)[C@@H](O)[C@H](O)[C@H](O)CO` [Mannitol, reference compound]: the “crystallization of Mannitol in cold environments” value is reported as “significantly mitigated or eliminated”.

In the next data set the test system is rabbit ear.
Experiment: not given
As to conditions: rating out of 5 (x/5); cited from earlier work.
`O=C1CC[C@@H](C(=O)[O-])N1.[Na+]` [Sodium PCA, sodium L-pyroglutamate]: the comedogenicity is on record as 0/5.

For the compound `CC12CCC(CC1=O)C2(C)C` (centres unmarked) [camphor, reference compound], the comedogenicity is recorded as 2/5.

As to `CCCCCCCCCCCCCCCCCCO` [cetearyl alcohol], the comedogenicity is recorded as 4/5.

For `CCCCCCCCCCCCCCCCCC(=O)OCC(O)CO` (centres unmarked) [glyceryl stearate], the comedogenicity is given as 3/5.

With `CCCCCCCCCCCCCC(=O)OC(C)C` [isopropyl myristate], the comedogenicity was 5/5.

For the compound `CCCCCCCCCCCCCCCC(=O)OCCCCCCCC` [octyl palmitate], the comedogenicity was 4/5.

As for `CC(C)=CCC/C(C)=C/CC/C(C)=C/CC/C=C(\C)CC/C=C(\C)CCC=C(C)C` [squalene], the comedogenicity was 1/5.

On to caprylic/capric triglyceride, for which the comedogenicity is 0/5.

In the case of cyclomethicone, the comedogenicity was 0/5.
